Results reported in patent US9469650B2, “Melampomagnolide B derivatives” (BOARD OF TRUSTEES OF THE UNIVERSITY OF ARKANSAS, priority 2013, dated 2016).

How the values were obtained:
SW-620 = assay: panel of 60 human tumor cell lines, growth inhibition (Colon Cancer); conditions: for Percent Growth: SW-620
MOLT-4 = assay: panel of 60 human tumor cell lines, growth inhibition (Leukemia)
CAKI-1 = assay: panel of 60 human tumor cell lines, growth inhibition (Renal Cancer)
SNB-75 = assay: panel of 60 human tumor cell lines, growth inhibition (CNS Cancer)
PC-3 = assay: panel of 60 human tumor cell lines, growth inhibition (Prostate Cancer)
M14 = assay: panel of 60 human tumor cell lines, growth inhibition (Melanoma)
NCI/ADR-RES = assay: panel of 60 human tumor cell lines, growth inhibition (Ovarian Cancer)
SK-MEL-28 = assay: panel of 60 human tumor cell lines, growth inhibition (Melanoma)
LOX IMVI = assay: as above
SK-MEL-2 = assay: as above; conditions: Homo sapiens

## C=C1C(=O)O[C@H]2[C@H]1CC/C(COC(=O)CCC(=O)NCc1ccc(Cl)nc1)=C\CC[C@@]1(C)O[C@@H]21 [JVM 96]
SW-620; Homo sapiens, SW-620, SW-620
  GI50: 4.35 µM
SW-620; Homo sapiens, SW-620, read-out: LC50
  CC50: 64.9 µM
SW-620; Homo sapiens, SW-620, read-out: TGI
  IC (TGI): 17.8 µM
SW-620; Log10 Concentration −4.0
  Percent Growth: −67%
SW-620; Log10 Concentration −5.0
  Percent Growth: 22%
SW-620; Log10 Concentration −6.0
  Percent Growth: 99%
SW-620; Log10 Concentration −7.0
  Percent Growth: 99%
SW-620; Log10 Concentration −8.0
  Percent Growth: 99%
MOLT-4; Homo sapiens, MOLT-4
  GI50: 6.22 µM
MOLT-4; Homo sapiens, MOLT-4, read-out: LC50
  CC50: > 100 µM
MOLT-4; Homo sapiens, MOLT-4, read-out: TGI
  IC (TGI): 38.2 µM
MOLT-4; MOLT-4, Log10 Concentration −4.0
  Percent Growth: −25%
MOLT-4; MOLT-4, Log10 Concentration −5.0
  Percent Growth: 34%
MOLT-4; MOLT-4, Log10 Concentration −6.0
  Percent Growth: 110%
MOLT-4; MOLT-4, Log10 Concentration −7.0
  Percent Growth: 105%
MOLT-4; MOLT-4, Log10 Concentration −8.0
  Percent Growth: 97%
CAKI-1; CAKI-1, Log10 Concentration −4.0
  Percent Growth: −93%
CAKI-1; CAKI-1, Log10 Concentration −5.0
  Percent Growth: 41%
CAKI-1; CAKI-1, Log10 Concentration −6.0
  Percent Growth: 87%
CAKI-1; CAKI-1, Log10 Concentration −7.0
  Percent Growth: 85%
CAKI-1; CAKI-1, Log10 Concentration −8.0
  Percent Growth: 93%
CAKI-1; Homo sapiens, CAKI-1
  GI50: 6.37 µM
CAKI-1; Homo sapiens, CAKI-1, read-out: LC50
  CC50: 47.9 µM
CAKI-1; Homo sapiens, CAKI-1, read-out: TGI
  IC (TGI): 20.3 µM
SNB-75; Homo sapiens, SNB-75
  GI50: 4.59 µM
SNB-75; Homo sapiens, SNB-75, read-out: LC50
  CC50: 47 µM
SNB-75; Homo sapiens, SNB-75, read-out: TGI
  IC (TGI): 20.1 µM
SNB-75; SNB-75, Log10 Concentration −4.0
  Percent Growth: −94%
SNB-75; SNB-75, Log10 Concentration −5.0
  Percent Growth: 41%
SNB-75; SNB-75, Log10 Concentration −6.0
  Percent Growth: 68%
SNB-75; SNB-75, Log10 Concentration −7.0
  Percent Growth: 69%
SNB-75; SNB-75, Log10 Concentration −8.0
  Percent Growth: 80%
PC-3; Homo sapiens, PC-3
  GI50: 15.6 µM
PC-3; Homo sapiens, PC-3, read-out: LC50
  CC50: 75.7 µM
PC-3; Homo sapiens, PC-3, read-out: TGI
  IC (TGI): 34.3 µM
PC-3; PC-3, Log10 Concentration −4.0
  Percent Growth: −68%
PC-3; PC-3, Log10 Concentration −5.0
  Percent Growth: 78%
PC-3; PC-3, Log10 Concentration −6.0
  Percent Growth: 93%
PC-3; PC-3, Log10 Concentration −7.0
  Percent Growth: 92%
PC-3; PC-3, Log10 Concentration −8.0
  Percent Growth: 90%
M14; Homo sapiens, M14
  GI50: 5.75 µM
M14; Homo sapiens, M14, read-out: LC50
  CC50: 50.3 µM
M14; Homo sapiens, M14, read-out: TGI
  IC (TGI): 19.5 µM
M14; M14, Log10 Concentration −4.0
  Percent Growth: −86%
M14; M14, Log10 Concentration −5.0
  Percent Growth: 35%
M14; M14, Log10 Concentration −6.0
  Percent Growth: 96%
M14; M14, Log10 Concentration −7.0
  Percent Growth: 91%
M14; M14, Log10 Concentration −8.0
  Percent Growth: 98%
NCI/ADR-RES; Homo sapiens
  GI50: 31.1 µM
NCI/ADR-RES; Homo sapiens, read-out: LC50
  CC50: > 100 µM
NCI/ADR-RES; Homo sapiens, read-out: TGI
  IC (TGI): > 100 µM
NCI/ADR-RES; Log10 Concentration −4.0
  Percent Growth: 6%
NCI/ADR-RES; Log10 Concentration −5.0
  Percent Growth: 93%
NCI/ADR-RES; Log10 Concentration −6.0
  Percent Growth: 107%
NCI/ADR-RES; Log10 Concentration −7.0
  Percent Growth: 101%
NCI/ADR-RES; Log10 Concentration −8.0
  Percent Growth: 101%
SK-MEL-28; Homo sapiens, SK-MEL-28
  GI50: 3.44 µM
SK-MEL-28; Homo sapiens, SK-MEL-28, read-out: LC50
  CC50: 46 µM
SK-MEL-28; Homo sapiens, SK-MEL-28, read-out: TGI
  IC (TGI): 14.8 µM
SK-MEL-28; SK-MEL-28, Log10 Concentration −4.0
  Percent Growth: −84%
SK-MEL-28; SK-MEL-28, Log10 Concentration −5.0
  Percent Growth: 17%
SK-MEL-28; SK-MEL-28, Log10 Concentration −6.0
  Percent Growth: 8.8. Percent
SK-MEL-28; SK-MEL-28, Log10 Concentration −7.0
  Percent Growth: 91%
SK-MEL-28; SK-MEL-28, Log10 Concentration −8.0
  Percent Growth: 92%
LOX IMVI; Homo sapiens
  GI50: 4.74 µM
LOX IMVI; Homo sapiens, read-out: LC50
  CC50: 47 µM
LOX IMVI; Homo sapiens, read-out: TGI
  IC (TGI): 16.7 µM
LOX IMVI; Log10 Concentration −4.0
  Percent Growth: −86%
LOX IMVI; Log10 Concentration −5.0
  Percent Growth: 25%
LOX IMVI; Log10 Concentration −6.0
  Percent Growth: 103%
LOX IMVI; Log10 Concentration −7.0
  Percent Growth: 98%
LOX IMVI; Log10 Concentration −8.0
  Percent Growth: 98%
SK-MEL-2; SK-MEL-2
  GI50: 11.3 µM
SK-MEL-2; SK-MEL-2, read-out: LC50
  CC50: 64.1 µM
SK-MEL-2; SK-MEL-2, read-out: TGI
  IC (TGI): 26.9 µM
